25 compounds from patent US20100160369A1, “S1P1 Agonists and Methods of Making And Using” (EXELIXIS, INC., priority 2008, published 2010) can be followed below.

Bounds are passed on as bounds.

The target of the first experiment is S1P1 (Homo sapiens, UniProt P21453). The experiment can be described thus: CNG cAMP Assay (Assay 1). More on the design: host or cells: HEK293 cells expressing the CNG channel. It counts as cell-based. Particulars: footnote 1: Relative EC50 was measured, read-out: Assay 1 Relative EC50. The protocol: Frozen HEK293 cells expressing the CNG channel and S1P1 (BD Biosciences, San Jose, Calif.) were thawed and plated into the wells of a black, clear bottom, 384-well CellBind plate (Corning, Corning, N.Y.) at 14,000 cells per well. HEK293 cells expressing the CNG channel and CB1 (BD Biosciences) were cultured and plated under the same conditions. The cells were incubated for 16 h at 37° C. in complete DMEM medium (Invitrogen Carlsbad, Calif.) containing 10% FBS (HyClone Logan, Utah), 250 μg/mL geneticin (Invitrogen), and 1 μg/mL puromycin (Sigma-Aldrich, St. Louis, Mo.). A membrane potential dye (BD Biosciences) was added and the plates were incubated for 2-2.5 h at room temperature.
S1P1, sequence (P21453 whole entry): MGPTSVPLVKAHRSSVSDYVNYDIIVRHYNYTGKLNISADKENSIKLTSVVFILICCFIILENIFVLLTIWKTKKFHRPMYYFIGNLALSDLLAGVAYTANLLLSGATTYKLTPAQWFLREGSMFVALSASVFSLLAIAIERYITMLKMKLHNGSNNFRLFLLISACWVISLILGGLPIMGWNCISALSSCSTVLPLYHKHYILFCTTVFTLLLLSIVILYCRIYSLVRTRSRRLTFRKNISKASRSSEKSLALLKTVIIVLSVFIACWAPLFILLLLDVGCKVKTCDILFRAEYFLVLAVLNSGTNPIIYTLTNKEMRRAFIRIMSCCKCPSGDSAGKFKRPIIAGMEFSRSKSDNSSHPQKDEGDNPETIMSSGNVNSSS
Test compounds were tested at maximum concentrations of 10 μM. Compounds were diluted in DMSO (10 concentration points, 3-fold each) and added to the assay plate at final DMSO concentrations of 1.8%. For each compound, there were duplicate assay plates and each assay plate had duplicate wells per concentration point. Test compounds were added to the cells in a DPBS solution containing 25 μM Ro 20-1724 (Sigma-Aldrich), 500 nM of the A2b receptor agonist NECA (Sigma-Aldrich) and 10 nM (EC95) of S1P (Avanti Alabaster, Ala.) and incubated for 90 min. The assay plate was read before compound addition (T0) and after the 90 min incubation (T90) using an EnVision plate reader (PerkinElmer, Waltham, Mass.) at an excitation wavelength of 350 nm and an emission wavelength of 590 nm. The T90/T0 ratio was determined for each concentration of the test compounds. The percent agonist activity was determined as [(test compound−DMSO alone control)/(NECA alone control−DMSO alone control)*100]. The percent activities were plotted against compound concentration to determine EC50 using XLFit (IDBS, Alameda, Calif.). The control used for calculating rEC50 in the S1P1 CNG agonist assay was DMSO.
Assay 1 is the CNG cAMP Assay as described in Biological Example 1. Assay 2a and 2b are the Tango™ β-arrestin Recruitment Assay in HEK293 and U2OS cells, respectively, as described in Biological Example 2. Assay 3a is the hS1P1R GTPγS Binding Assay as described in Biological Example 3. Assay 3b is the GTP-Eu Binding Assay as described in Biological Example 3. EC50's were measured unless otherwise noted. […] In the table, “nt” means the Compound was not tested and “no” means the compound was tested but had no measurable activity under the assay conditions employed.
A word on the EC50: it is the concentration needed to bring the measured effect to its halfway point. As to `O=C(O)Cc1ccc(-c2noc(-c3cn4cc(C(F)(F)F)cc(Cl)c4n3)n2)c(Cl)c1` [Example 133, (3-chloro-4-{5-[8-chloro-6-(trifluoromethyl)imidazo[1,2-a]pyridin-2-yl]-1,2,4-oxadiazol-3-yl}phenyl)acetic acid], the concentration giving a half-maximal response (EC50) lay within 1000 to 5000 nM.

For the compound `CCNC(CC(=O)O)c1ccc(-c2noc(-c3cn4cc(C(F)(F)F)cc(Cl)c4n3)n2)c(Cl)c1` (stereo not shown) [Example 137, 3-(3-chloro-4-{5-[8-chloro-6-(trifluoromethyl)imidazo[1,2-a]pyridin-2-yl]-1,2,4-oxadiazol-3-yl}phenyl)-3-(ethylamino)propanoic acid], the EC50 fell in the range of 1000 to 5000 nM.

The experiment is the same for the next values; noted with them: read-out: Assay 1 EC50.
Regarding `CS(=O)(=O)Nc1ccc(-c2noc(-c3cn4cc(C(F)(F)F)cc(Cl)c4n3)n2)cc1F` [Example 109, N-(4-{5-[8-chloro-6-(trifluoromethyl)imidazo[1,2-a]pyridin-2-yl]-1,2,4-oxadiazol-3-yl}-2-fluorophenyl)methanesulfonamide], the EC50 was in the range of 100 to 500 nM.

Consider `CS(=O)(=O)Nc1cc(Cl)c(-c2noc(-c3cn4cc(C(F)(F)F)cc(Cl)c4n3)n2)cc1F` [Example 111, N-(5-chloro-4-{5-[8-chloro-6-(trifluoromethyl)imidazo[1,2-a]pyridin-2-yl]-1,2,4-oxadiazol-3-yl}-2-fluorophenyl)methanesulfonamide], for which the EC50 is at most 100 nM.

Take `O=C(O)CN1CCC(Oc2ccc(-c3noc(-c4cn5cc(C(F)(F)F)cc(Cl)c5n4)n3)c(Cl)c2)C1` (stereo not shown) [Example 112]: the EC50 was at most 100 nM.

Regarding `CCOC(=O)C(C)Oc1cc(Cl)c(-c2noc(-c3cn4cc(C(F)(F)F)cc(Cl)c4n3)n2)cc1F` (stereo not shown) [Example 113, ethyl 2-[(5-chloro-4-{5-[8-chloro-6-(trifluoromethyl)imidazo[1,2-a]pyridin-2-yl]-1,2,4-oxadiazol-3-yl}-2-fluorophenyl)oxy]propanoate], the EC50 is at most 100 nM.

Consider `CS(=O)(=O)Nc1ccc(-c2noc(-c3cn4cc(C(F)(F)F)cc(Cl)c4n3)n2)cc1` [Example 117, N-(4-{5-[8-chloro-6-(trifluoromethyl)imidazo[1,2-a]pyridin-2-yl]-1,2,4-oxadiazol-3-yl}phenyl)methanesulfonamide], for which the EC50 was at most 100 nM.

Take `Cc1cc(-c2noc(-c3cn4cc(C(F)(F)F)cc(Cl)c4n3)n2)ccc1NS(C)(=O)=O` [Example 119, N-(4-{5-[8-chloro-6-(trifluoromethyl)imidazo[1,2-a]pyridin-2-yl]-1,2,4-oxadiazol-3-yl}-2-methylphenyl)methanesulfonamide]: the EC50 is at most 100 nM.

Consider `O=C(O)CNCc1ccc(-c2noc(-c3cn4cc(C(F)(F)F)cc(Cl)c4n3)n2)c(Cl)c1` [Example 120, N-[(3-chloro-4-{5-[8-chloro-6-(trifluoromethyl)imidazo[1,2-a]pyridin-2-yl]-1,2,4-oxadiazol-3-yl}phenyl)methyl]glycine], for which the half-maximal effective concentration (EC50) is 500 to 1000 nM.

For `O=C(O)C1CN(Cc2cccc(-c3noc(-c4cn5cc(C(F)(F)F)cc(Cl)c5n4)n3)c2)C1` [Example 121, 1-[(3-{5-[8-chloro-6-(trifluoromethyl)imidazo[1,2-a]pyridin-2-yl]-1,2,4-oxadiazol-3-yl}phenyl)methyl]azetidine-3-carboxylic acid], the EC50 fell in the range of 500 to 1000 nM.

Take `CS(=O)(=O)Nc1ccc(-c2noc(-c3cn4cc(C(F)(F)F)cc(Cl)c4n3)n2)cc1Cl` [Example 122, N-(2-chloro-4-{5-[8-chloro-6-(trifluoromethyl)imidazo[1,2-a]pyridin-2-yl]-1,2,4-oxadiazol-3-yl}phenyl)methanesulfonamide]: the EC50 was at most 100 nM.

`O=C(O)CCNCc1ccc(-c2noc(-c3cn4cc(C(F)(F)F)cc(Cl)c4n3)n2)cc1` [Example 123, N-[(4-{5-[8-chloro-6-(trifluoromethyl)imidazo[1,2-a]pyridin-2-yl]-1,2,4-oxadiazol-3-yl}phenyl)methyl]-beta-alanine]: the EC50 lay in the range of 100 to 500 nM.

With `CC(C)(O)c1ccc(-c2noc(-c3cn4cc(C(F)(F)F)cc(Cl)c4n3)n2)c(Cl)c1` [Example 126, 2-(3-chloro-4-{5-[8-chloro-6-(trifluoromethyl)imidazo[1,2-a]pyridin-2-yl]-1,2,4-oxadiazol-3-yl}phenyl)propan-2-ol], the EC50 is 100 to 500 nM.

Turning to `O=C(O)C1CN(Cc2ccc(-c3noc(-c4cn5cc(C(F)(F)F)cc(Cl)c5n4)n3)cc2Cl)C1` [Example 127, 1-[(2-chloro-4-{5-[8-chloro-6-(trifluoromethyl)imidazo[1,2-a]pyridin-2-yl]-1,2,4-oxadiazol-3-yl}phenyl)methyl]azetidine-3-carboxylic acid], the EC50 lay within 100 to 500 nM.

With `C=CS(=O)(=O)Nc1ccc(-c2noc(-c3cn4cc(C(F)(F)F)cc(Cl)c4n3)n2)c(Cl)c1` [Example 128, N-(3-chloro-4-{5-[8-chloro-6-(trifluoromethyl)imidazo[1,2-a]pyridin-2-yl]-1,2,4-oxadiazol-3-yl}phenyl)ethenesulfonamide], the EC50 lay in the range of 100 to 500 nM.

For the compound `CS(=O)(=O)Nc1ccc(-c2noc(-c3cn4cc(C(F)(F)F)cc(Cl)c4n3)n2)c(F)c1` [Example 129, N-(4-{5-[8-chloro-6-(trifluoromethyl)imidazo[1,2-a]pyridin-2-yl]-1,2,4-oxadiazol-3-yl}-3-fluorophenyl)methanesulfonamide], the EC50 was 100 to 500 nM.

On to `O=c1nc(-c2ccc(-c3noc(-c4cn5cc(C(F)(F)F)cc(Cl)c5n4)n3)c(Cl)c2)[nH]o1` [Example 134, 3-(3-chloro-4-{5-[8-chloro-6-(trifluoromethyl)imidazo[1,2-a]pyridin-2-yl]-1,2,4-oxadiazol-3-yl}phenyl)-1,2,4-oxadiazol-5(2H)-one], for which the EC50 fell in the range of 500 to 1000 nM.

`NC(=O)C(CC(=O)O)c1ccc(-c2noc(-c3cn4cc(C(F)(F)F)cc(Cl)c4n3)n2)c(Cl)c1` (stereo not shown) [Example 135, 4-amino-3-(3-chloro-4-{5-[8-chloro-6-(trifluoromethyl)imidazo[1,2-a]pyridin-2-yl]-1,2,4-oxadiazol-3-yl}phenyl)-4-oxobutanoic acid]: the EC50 fell in the range of 100 to 500 nM.

In the case of `CS(=O)(=O)CCc1ccc(-c2noc(-c3cn4cc(C(F)(F)F)cc(Cl)c4n3)n2)c(Cl)c1` [Example 140, 8-chloro-2-(3-{2-chloro-4-[2-(methylsulfonyl)ethyl]phenyl}-1,2,4-oxadiazol-5-yl)-6-(trifluoromethyl)imidazo[1,2-a]pyridine], the EC50 was at most 100 nM.

With `FC(F)(F)c1cccc(-c2noc(-c3cn4cc(C(F)(F)F)cc(Cl)c4n3)n2)c1` [Example 143, 8-chloro-6-(trifluoromethyl)-2-{3-[3-(trifluoromethyl)phenyl]-1,2,4-oxadiazol-5-yl}imidazo[1,2-a]pyridine], the EC50 fell in the range of 500 to 1000 nM.

Regarding `OCCN1CCC(Oc2cc(Cl)c(-c3noc(-c4cn5cc(C(F)(F)F)cc(Cl)c5n4)n3)cc2F)C1` (stereo not shown) [Example 144, 2-{3-[(5-chloro-4-{5-[8-chloro-6-(trifluoromethyl)imidazo[1,2-a]pyridin-2-yl]-1,2,4-oxadiazol-3-yl}-2-fluorophenyl)oxy]pyrrolidin-1-yl}ethanol], the 50% effective concentration (EC50) lay in the range of 100 to 500 nM.

As to `Fc1ccc(-c2noc(-c3cn4cc(C(F)(F)F)cc(Cl)c4n3)n2)c(F)c1` [Example 146, 8-chloro-2-[3-(2,4-difluorophenyl)-1,2,4-oxadiazol-5-yl]-6-(trifluoromethyl)imidazo[1,2-a]pyridine], the EC50 lay in the range of 500 to 1000 nM.

The same experiment, now with this note: relative EC50 was measured (footnote 1), read-out: Assay 1 Relative EC50.
Turning to `CCN(CC)CCS(=O)(=O)Nc1ccc(-c2noc(-c3cn4cc(C(F)(F)F)cc(Cl)c4n3)n2)c(Cl)c1` [Example 108, N-(3-chloro-4-{5-[8-chloro-6-(trifluoromethyl)imidazo[1,2-a]pyridin-2-yl]-1,2,4-oxadiazol-3-yl}phenyl)-2-(diethylamino)ethanesulfonamide], the EC50 lay within 1000 to 5000 nM.

Take `CS(=O)(=O)Nc1ccc(-c2noc(-c3cn4cc(C#N)cc(Br)c4n3)n2)c(Cl)c1` [Example 114, N-{4-[5-(8-bromo-6-cyanoimidazo[1,2-a]pyridin-2-yl)-1,2,4-oxadiazol-3-yl]-3-chlorophenyl}methanesulfonamide]: the concentration for a half-maximal effect (EC50) lay in the range of 1000 to 5000 nM.

As to `Cc1cc(Br)c2nc(-c3nc(-c4ccc(NS(C)(=O)=O)cc4Cl)no3)cn2c1` [Example 125, N-{4-[5-(8-bromo-6-methylimidazo[1,2-a]pyridin-2-yl)-1,2,4-oxadiazol-3-yl]-3-chlorophenyl}methanesulfonamide], the EC50 fell in the range of 1000 to 5000 nM.
